# Source: PMC10528299, “Targeting FAK/PYK2 with SJP1602 for Anti-Tumor Activity in Triple-Negative Breast Cancer” (Current Issues in Molecular Biology, 2023)
# Legend:
# Assay in all cases: Eurofins kinase profiling
# Type in all cases: biochemical
# Ros(h) = target: T1, Ros(h) (Homo sapiens, UniProt P08922); details: read-out: residual kinase activity Ros(h)
# T1 construct: purchased Eurofins KinaseProfiler
# How it was run: (§1)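 At a fixed 1 µM, the compound was profiled against each kinase, whose activity was quantified through radiolabeled phosphate incorporation.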
# Fer(h) = target: T2, Fer(h) (Homo sapiens, UniProt P16591); details: read-out: residual kinase activity Fer(h)
# T2 construct: purchased Eurofins KinaseProfiler
# How it was run: as §1
# cKit(D816H)(h) = target: T3, cKit(D816H)(h) (Homo sapiens, UniProt P10721, D816H); details: read-out: residual kinase activity cKit(D816H)(h)
# T3 construct: purchased Eurofins KinaseProfiler
# How it was run: as §1
# Aurora-A(h) = target: T4, Aurora-A(h) (Homo sapiens, UniProt O14965); details: read-out: residual kinase activity Aurora-A(h)
# T4 construct: purchased Eurofins KinaseProfiler
# T4 sequence (O14965 1-403): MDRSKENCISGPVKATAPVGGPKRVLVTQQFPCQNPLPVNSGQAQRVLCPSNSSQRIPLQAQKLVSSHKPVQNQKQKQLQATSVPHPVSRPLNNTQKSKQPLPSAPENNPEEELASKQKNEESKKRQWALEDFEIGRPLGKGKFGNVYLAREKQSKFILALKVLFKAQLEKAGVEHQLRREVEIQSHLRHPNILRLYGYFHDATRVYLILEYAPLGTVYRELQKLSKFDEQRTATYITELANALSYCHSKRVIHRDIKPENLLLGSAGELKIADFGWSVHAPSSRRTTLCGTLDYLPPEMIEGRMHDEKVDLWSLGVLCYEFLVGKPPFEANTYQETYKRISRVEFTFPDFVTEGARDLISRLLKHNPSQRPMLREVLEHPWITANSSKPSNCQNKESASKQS
# How it was run: as §1
# Met(h) = target: T5, Met(h) (Homo sapiens, UniProt P08581); details: for remaining activity at 1 µM: read-out: residual kinase activity Met(h)
# T5 construct: purchased Eurofins KinaseProfiler
# T5 sequence (P08581 25-1390): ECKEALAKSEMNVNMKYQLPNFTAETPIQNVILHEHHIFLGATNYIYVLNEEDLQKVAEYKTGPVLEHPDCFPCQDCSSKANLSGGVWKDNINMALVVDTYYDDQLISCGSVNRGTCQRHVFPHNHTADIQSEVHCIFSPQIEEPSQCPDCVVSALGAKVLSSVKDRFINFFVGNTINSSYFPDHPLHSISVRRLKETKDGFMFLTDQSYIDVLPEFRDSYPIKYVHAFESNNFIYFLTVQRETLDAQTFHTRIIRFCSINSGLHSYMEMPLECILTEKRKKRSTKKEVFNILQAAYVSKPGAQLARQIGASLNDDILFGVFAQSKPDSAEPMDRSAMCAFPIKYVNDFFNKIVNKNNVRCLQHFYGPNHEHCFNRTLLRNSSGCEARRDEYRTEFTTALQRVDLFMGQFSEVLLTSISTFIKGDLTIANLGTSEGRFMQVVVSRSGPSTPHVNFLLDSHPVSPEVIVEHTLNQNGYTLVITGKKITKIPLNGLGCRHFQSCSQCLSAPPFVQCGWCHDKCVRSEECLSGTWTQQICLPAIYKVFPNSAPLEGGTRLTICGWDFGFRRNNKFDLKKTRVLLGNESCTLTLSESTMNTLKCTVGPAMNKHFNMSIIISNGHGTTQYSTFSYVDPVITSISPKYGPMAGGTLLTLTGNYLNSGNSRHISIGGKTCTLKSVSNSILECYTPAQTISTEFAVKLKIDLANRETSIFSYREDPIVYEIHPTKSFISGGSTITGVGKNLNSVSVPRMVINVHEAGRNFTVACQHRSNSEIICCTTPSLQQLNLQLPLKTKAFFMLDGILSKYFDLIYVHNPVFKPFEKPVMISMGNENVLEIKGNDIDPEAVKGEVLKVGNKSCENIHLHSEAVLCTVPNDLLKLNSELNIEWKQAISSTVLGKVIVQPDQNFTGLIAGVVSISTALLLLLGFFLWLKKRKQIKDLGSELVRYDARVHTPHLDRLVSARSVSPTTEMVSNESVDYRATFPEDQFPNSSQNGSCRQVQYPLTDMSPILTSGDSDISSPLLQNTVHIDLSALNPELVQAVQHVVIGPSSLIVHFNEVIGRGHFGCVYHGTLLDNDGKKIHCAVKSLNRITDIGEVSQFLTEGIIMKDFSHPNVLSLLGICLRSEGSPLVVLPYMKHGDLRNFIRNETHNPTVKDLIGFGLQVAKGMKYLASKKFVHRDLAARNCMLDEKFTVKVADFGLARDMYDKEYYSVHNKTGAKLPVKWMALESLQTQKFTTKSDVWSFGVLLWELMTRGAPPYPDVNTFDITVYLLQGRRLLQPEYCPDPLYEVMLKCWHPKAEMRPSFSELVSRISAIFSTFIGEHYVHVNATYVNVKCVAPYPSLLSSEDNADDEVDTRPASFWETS
# How it was run: as §1
# PKCι(h) = target: T6, PKCι(h) (Homo sapiens, UniProt P41743); details: read-out: residual kinase activity PKCι(h)
# T6 construct: purchased Eurofins KinaseProfiler
# T6 sequence (P41743 1-596): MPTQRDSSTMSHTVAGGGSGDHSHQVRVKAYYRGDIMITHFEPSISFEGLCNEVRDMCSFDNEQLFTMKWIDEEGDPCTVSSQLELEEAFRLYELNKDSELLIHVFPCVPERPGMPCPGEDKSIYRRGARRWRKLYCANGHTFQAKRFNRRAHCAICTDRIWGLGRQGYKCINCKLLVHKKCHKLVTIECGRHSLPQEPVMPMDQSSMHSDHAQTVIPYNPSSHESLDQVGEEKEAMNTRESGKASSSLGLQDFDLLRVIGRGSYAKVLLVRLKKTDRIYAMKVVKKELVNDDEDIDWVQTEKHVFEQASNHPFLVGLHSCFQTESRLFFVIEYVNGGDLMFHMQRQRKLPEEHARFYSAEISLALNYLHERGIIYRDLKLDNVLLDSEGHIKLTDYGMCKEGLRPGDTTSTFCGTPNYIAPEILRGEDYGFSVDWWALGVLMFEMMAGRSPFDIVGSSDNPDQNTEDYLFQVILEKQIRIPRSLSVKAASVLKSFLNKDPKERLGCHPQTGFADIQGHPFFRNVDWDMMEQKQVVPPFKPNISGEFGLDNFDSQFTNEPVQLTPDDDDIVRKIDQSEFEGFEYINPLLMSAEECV
# How it was run: as §1
# [1] = target: T7, PI3 Kinase (p110d/p85a)(h) (Homo sapiens, UniProt O00329); details: read-out: residual kinase activity PI3 Kinase (p110d/p85a)(h)
# T7 construct: purchased Eurofins KinaseProfiler
# T7 sequence (O00329 whole entry): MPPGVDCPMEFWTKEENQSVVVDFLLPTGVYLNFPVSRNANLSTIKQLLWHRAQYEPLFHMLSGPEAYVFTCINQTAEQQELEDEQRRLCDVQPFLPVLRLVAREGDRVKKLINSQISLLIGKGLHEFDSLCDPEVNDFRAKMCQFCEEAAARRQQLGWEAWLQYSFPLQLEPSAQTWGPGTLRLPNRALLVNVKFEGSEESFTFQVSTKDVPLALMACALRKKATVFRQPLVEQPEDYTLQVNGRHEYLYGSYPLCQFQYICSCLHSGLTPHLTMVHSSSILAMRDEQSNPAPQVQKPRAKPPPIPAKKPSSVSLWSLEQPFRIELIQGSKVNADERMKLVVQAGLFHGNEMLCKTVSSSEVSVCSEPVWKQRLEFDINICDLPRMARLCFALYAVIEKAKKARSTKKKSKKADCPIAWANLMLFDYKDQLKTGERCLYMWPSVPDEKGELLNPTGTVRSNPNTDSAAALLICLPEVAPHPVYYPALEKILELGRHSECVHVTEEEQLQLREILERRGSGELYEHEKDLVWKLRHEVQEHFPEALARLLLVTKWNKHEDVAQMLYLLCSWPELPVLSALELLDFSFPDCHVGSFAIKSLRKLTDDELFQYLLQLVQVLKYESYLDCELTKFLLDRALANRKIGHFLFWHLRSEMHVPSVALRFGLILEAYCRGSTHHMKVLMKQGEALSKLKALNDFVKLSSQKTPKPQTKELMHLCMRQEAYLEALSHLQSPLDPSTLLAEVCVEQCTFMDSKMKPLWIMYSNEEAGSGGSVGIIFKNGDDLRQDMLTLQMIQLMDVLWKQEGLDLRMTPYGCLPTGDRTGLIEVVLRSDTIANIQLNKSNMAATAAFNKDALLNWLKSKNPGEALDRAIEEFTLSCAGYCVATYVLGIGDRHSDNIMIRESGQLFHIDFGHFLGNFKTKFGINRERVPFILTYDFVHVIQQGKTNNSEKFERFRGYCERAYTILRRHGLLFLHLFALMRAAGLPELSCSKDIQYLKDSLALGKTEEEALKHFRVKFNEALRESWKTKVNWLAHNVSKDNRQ
# T7 sequence (P27986 whole entry partner): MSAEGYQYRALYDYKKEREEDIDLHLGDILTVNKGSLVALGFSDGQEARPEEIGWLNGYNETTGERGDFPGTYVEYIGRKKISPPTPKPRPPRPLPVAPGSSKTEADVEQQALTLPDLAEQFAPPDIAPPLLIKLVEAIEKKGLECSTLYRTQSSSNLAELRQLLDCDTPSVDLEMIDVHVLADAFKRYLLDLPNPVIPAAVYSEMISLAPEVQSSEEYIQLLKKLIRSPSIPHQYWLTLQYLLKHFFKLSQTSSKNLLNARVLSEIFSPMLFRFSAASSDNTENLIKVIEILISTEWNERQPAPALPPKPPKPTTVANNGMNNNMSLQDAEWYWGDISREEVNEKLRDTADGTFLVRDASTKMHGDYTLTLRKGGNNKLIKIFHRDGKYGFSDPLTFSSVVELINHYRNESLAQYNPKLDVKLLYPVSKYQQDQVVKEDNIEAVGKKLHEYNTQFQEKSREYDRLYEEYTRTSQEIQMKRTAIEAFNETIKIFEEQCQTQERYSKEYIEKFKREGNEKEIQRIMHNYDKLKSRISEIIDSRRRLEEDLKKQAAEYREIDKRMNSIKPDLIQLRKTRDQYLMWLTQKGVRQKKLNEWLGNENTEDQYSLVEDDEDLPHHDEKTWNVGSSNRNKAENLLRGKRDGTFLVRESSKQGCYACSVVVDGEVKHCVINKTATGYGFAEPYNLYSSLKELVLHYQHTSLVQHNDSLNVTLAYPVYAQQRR
# How it was run: as §1
# PKCε(h) = target: T8, PKCε(h) (Homo sapiens, UniProt Q02156); details: read-out: residual kinase activity PKCε(h)
# T8 construct: purchased Eurofins KinaseProfiler
# T8 sequence (Q02156 1-737): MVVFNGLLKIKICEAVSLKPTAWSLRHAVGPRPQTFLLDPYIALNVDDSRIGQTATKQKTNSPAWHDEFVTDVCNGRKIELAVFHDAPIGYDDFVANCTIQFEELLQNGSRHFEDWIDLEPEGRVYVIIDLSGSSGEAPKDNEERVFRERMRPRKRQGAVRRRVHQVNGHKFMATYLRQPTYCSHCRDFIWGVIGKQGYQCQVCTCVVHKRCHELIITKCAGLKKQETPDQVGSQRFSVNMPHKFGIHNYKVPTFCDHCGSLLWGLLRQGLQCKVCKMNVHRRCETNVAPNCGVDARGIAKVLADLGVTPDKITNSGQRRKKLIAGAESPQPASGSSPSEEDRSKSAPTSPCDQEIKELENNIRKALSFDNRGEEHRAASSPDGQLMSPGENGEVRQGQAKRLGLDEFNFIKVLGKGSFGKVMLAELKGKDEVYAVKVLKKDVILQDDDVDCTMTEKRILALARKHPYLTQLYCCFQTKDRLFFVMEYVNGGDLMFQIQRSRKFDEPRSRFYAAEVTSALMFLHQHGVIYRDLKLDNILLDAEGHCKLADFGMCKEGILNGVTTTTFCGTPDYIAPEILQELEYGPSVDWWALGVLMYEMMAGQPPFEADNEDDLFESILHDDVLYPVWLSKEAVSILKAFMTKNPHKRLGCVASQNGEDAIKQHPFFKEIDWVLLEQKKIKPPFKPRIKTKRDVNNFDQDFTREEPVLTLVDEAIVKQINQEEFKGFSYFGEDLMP
# How it was run: as §1
# PKCα(h) = target: T9, PKCα(h) (Homo sapiens, UniProt P17252); details: read-out: residual kinase activity PKCα(h)
# T9 construct: purchased Eurofins KinaseProfiler
# How it was run: as §1
# CK1γ2(h) = target: T10, CK1γ2(h) (Homo sapiens, UniProt P78368); details: read-out: residual kinase activity CK1γ2(h)
# T10 construct: purchased Eurofins KinaseProfiler
# T10 sequence (P78368 whole entry): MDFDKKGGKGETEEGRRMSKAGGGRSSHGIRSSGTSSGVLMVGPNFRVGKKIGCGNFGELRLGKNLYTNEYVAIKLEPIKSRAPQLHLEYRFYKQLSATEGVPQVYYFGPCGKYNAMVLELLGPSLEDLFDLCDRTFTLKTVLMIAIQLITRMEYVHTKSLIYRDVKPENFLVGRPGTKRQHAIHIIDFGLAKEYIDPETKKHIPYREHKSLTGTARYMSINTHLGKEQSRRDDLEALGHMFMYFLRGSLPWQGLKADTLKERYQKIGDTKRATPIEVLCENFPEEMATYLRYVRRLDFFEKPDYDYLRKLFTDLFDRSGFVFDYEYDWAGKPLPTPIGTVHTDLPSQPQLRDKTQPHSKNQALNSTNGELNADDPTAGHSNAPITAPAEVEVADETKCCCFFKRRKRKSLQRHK
# How it was run: as §1
# HIPK2(h) = target: T11, HIPK2(h) (Homo sapiens, UniProt Q9H2X6); details: read-out: residual kinase activity HIPK2(h)
# T11 construct: purchased Eurofins KinaseProfiler
# T11 sequence (Q9H2X6 whole entry): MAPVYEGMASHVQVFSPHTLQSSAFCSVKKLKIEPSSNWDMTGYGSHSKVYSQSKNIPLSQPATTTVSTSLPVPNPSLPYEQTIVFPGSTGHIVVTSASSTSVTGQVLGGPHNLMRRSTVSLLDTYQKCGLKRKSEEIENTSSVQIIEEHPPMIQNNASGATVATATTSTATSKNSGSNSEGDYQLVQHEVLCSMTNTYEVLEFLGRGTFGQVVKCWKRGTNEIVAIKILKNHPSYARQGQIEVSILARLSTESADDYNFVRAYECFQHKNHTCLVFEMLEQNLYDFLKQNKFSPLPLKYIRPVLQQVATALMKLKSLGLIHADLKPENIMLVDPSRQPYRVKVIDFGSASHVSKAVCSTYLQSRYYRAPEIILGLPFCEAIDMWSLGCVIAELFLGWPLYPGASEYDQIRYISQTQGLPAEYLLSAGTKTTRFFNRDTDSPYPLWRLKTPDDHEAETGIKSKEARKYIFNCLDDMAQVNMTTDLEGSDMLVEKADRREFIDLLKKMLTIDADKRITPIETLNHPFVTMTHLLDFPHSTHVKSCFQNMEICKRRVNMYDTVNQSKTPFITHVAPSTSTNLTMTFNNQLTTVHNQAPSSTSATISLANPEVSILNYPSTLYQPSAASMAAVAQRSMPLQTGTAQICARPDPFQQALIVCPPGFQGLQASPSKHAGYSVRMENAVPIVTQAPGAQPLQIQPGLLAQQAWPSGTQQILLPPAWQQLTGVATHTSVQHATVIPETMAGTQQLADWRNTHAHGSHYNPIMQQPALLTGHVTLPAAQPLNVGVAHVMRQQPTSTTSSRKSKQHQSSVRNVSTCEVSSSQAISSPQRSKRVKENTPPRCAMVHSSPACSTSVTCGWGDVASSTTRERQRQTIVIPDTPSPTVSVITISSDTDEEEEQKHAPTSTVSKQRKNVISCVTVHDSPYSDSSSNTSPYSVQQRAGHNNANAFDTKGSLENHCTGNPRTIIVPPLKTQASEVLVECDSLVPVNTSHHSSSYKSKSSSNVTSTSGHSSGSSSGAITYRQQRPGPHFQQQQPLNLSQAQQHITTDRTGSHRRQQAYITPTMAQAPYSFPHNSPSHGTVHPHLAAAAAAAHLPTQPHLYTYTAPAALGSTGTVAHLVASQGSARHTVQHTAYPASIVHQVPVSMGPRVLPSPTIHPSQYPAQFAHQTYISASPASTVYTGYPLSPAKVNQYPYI
# How it was run: as §1
# ErbB2(h) = target: T12, ErbB2(h) (Homo sapiens, UniProt P04626); details: read-out: residual kinase activity ErbB2(h)
# T12 construct: purchased Eurofins KinaseProfiler
# How it was run: as §1
# PDGFRα(h) = target: T13, PDGFRα(h) (Homo sapiens, UniProt P16234); details: read-out: residual kinase activity PDGFRα(h)
# T13 construct: purchased Eurofins KinaseProfiler
# How it was run: as §1
SMILES,remaining activity at 1 µM (Ros(h)),remaining activity at 1 µM (Fer(h)),remaining activity at 1 µM (cKit(D816H)(h)),remaining activity at 1 µM (Aurora-A(h)),remaining activity at 1 µM (Met(h)),remaining activity at 1 µM (PKCι(h)),remaining activity at 1 µM [1],remaining activity at 1 µM (PKCε(h)),remaining activity at 1 µM (PKCα(h)),remaining activity at 1 µM (CK1γ2(h)),remaining activity at 1 µM (HIPK2(h)),remaining activity at 1 µM (ErbB2(h)),remaining activity at 1 µM (PDGFRα(h)),inhibition at 1 µM (Met(h))
CONC(=O)c1ccccc1Nc1cc(Nc2cc(C)nn2C(C)C)ncc1Cl [GSK2256098],103%,105%,98%,43%,76%,106%,115%,112%,95%,97%,94%,94%,101%,–
"CNC(=O)c1ccc(Nc2ncc(C(F)(F)F)c(NCc3nccnc3N(C)S(C)(=O)=O)n2)cc1 [VS-6063, Defactinib]",106%,31%,94%,12%,42%,100%,88%,98%,92%,64%,16%,122%,79%,–
"CNC(=O)c1cccc(C)c1Nc1nc(Nc2ccc(N3CCN(C4C5CC6CC4CC(O)(C6)C5)CC3)cc2OC)ncc1C(F)(F)F (stereo not shown) [SJP1602, 2-((2-((4-(4-((2s,5r)-5-hydroxyadamantan-2-yl)piperazin-1-yl)-2-methoxyphenyl)amino)-5-(trifluoromethyl)pyrimidin-4-yl)amino)-N,3-dimethylbenzamide]",104%,68%,124%,48%,21%,93%,91%,103%,100%,101%,100%,113%,97%,79%
